In ChEMBL document CHEMBL5226304, “Fused-azepinones: Emerging scaffolds of medicinal importance” (Eur J Med Chem, 2021):
≈ marks a conversion by molar mass, not a printed value.

Experiments:
[1] = system: L5178Y; test: Cytotoxicity against mouse L5178Y cells by MTT assay; type: functional, cell-based
[2] = molecular target: Cyclin-dependent kinase 1/cyclin B (Homo sapiens, UniProt P06493); test: Inhibition of CDK1/Cyclin B (unknown origin) in presence of gamma32P-ATP by scintillation counter analysis; type: protein-complex assay
[3] = molecular target: Cyclin-dependent kinase 5/CDK5 activator 1 (Homo sapiens, UniProt Q00535); test: Inhibition of CDK5/p25 (unknown origin); type: protein-complex assay
[4] = molecular target: Casein kinase I; test: Inhibition of CK1 (unknown origin); type: protein assay, Homo sapiens
[5] = molecular target: Protein kinase C (PKC); test: Inhibition of Protein kinase C (unknown origin); type: protein assay, Homo sapiens
[6] = system: Human immunodeficiency virus 1; test: Antiviral activity against HIV1 assessed as inhibition of LC5-RIC cells infection at 50 uM relative to control; type: functional
[7] = molecular target: Cyclin-dependent kinase 2/cyclin A (Homo sapiens, UniProt P24941); test: Inhibition of CDK2/Cyclin A (unknown origin); type: protein-complex assay
[8] = molecular target: CDK9/Cyclin T (Homo sapiens, UniProt P50750); test: Inhibition of CDK9/Cyclin T (unknown origin); type: protein-complex assay
[9] = molecular target: Dual specificity tyrosine-phosphorylation-regulated kinase 1A (Homo sapiens, UniProt Q13627)
Description: Inhibition of DYRK1A (unknown origin)

[10] = molecular target: Glycogen synthase kinase-3 beta (Rattus norvegicus, UniProt P18266); test: Inhibition of recombinant recombinant rat GSK3beta using GS-1 peptide as substrate in presence of [gamma-32P]ATP measured after 30 mins incubation by scintillation counting analysis
[11] = species: Homo sapiens; test: Selectivity ratio of IC50 for Chk1 (unknown origin) to IC50 for (unknown origin)
[12] = system: MOLM-13; test: Antiproliferative activity against human MOLM-13 cells assessed as inhibition of proliferation measured after 96 hrs by alamerBlue assay; type: functional, cell-based
[13] = system: LAPC4; test: Antiproliferative activity against human LAPC4 cells assessed as inhibition of proliferation measured after 96 hrs by alamerBlue assay; type: functional, cell-based
[14] = molecular target: Integrin alpha-V/beta-3 (Homo sapiens, UniProt P05106+P06756); test: Antagonist activity against human integrin alphaVbeta3 expressed in CHO-K1 cells measured after 4 hrs by Cell adhesion assay; type: cell-based
[15] = system: 786-0; test: Antitumor activity against human 786-0 cells; type: functional
[16] = species: Homo sapiens; test: Inhibition of MPK (unknown origin) at 10 uM relative to control
[17] = molecular target: Serine/threonine-protein kinase PLK1 (Homo sapiens) (UniProt P53350); test: Inhibition of PLK1 (unknown origin) at 10 uM relative to control
[18] = molecular target: Serine/threonine-protein kinase pim-1 (Homo sapiens) (UniProt P11309); test: Inhibition of PIM1 (unknown origin) at 10 uM relative to control
[19] = molecular target: Mitogen-activated protein kinase kinase kinase 11 (Homo sapiens) (UniProt Q16584); test: Inhibition of MLK3 (unknown origin) at 10 uM relative to control
[20] = molecular target: MAP/microtubule affinity-regulating kinase 3 (Homo sapiens) (UniProt P27448); test: Inhibition of MARK3 (unknown origin) at 10 uM relative to control
[21] = molecular target: Aurora kinase B (Homo sapiens) (UniProt Q96GD4); test: Inhibition of Aurora B (unknown origin) at 10 uM relative to control
[22] = Inhibition of MAPKK (unknown origin); design: species or system Homo sapiens
[23] = molecular target: Cyclin-dependent kinase 4/cyclin D1 (Homo sapiens, UniProt P11802); test: Inhibition of CDK4/Cyclin D1 (unknown origin); type: protein-complex assay
[24] = molecular target: RAF proto-oncogene serine/threonine-protein kinase (Homo sapiens, UniProt P04049); test: Inhibition of c-Raf (unknown origin)
[25] = Inhibition of cAMP-dependent protein kinase (unknown origin); design: species or system Homo sapiens
[26] = Inhibition of cGMP-dependent protein kinase (unknown origin); design: species or system Homo sapiens

Cyclin-dependent kinase 5/CDK5 activator 1, sequence (Q00535 whole entry): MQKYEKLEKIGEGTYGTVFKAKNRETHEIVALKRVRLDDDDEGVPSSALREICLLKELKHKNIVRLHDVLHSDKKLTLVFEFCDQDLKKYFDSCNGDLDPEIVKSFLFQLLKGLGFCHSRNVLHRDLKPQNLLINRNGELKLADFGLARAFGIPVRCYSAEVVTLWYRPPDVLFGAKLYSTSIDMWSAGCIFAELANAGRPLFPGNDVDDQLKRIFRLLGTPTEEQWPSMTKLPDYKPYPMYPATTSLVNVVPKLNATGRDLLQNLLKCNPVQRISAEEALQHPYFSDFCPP
Cyclin-dependent kinase 5/CDK5 activator 1, sequence (Q15078 whole entry, further chain): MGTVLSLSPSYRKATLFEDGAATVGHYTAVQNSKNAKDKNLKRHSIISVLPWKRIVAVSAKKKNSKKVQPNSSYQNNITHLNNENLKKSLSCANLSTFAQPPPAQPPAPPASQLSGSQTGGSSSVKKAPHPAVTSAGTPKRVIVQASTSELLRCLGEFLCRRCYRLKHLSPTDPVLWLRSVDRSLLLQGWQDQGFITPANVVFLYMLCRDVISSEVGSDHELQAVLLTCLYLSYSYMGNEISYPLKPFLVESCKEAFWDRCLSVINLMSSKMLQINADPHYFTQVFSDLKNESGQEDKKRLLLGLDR
Integrin alpha-V/beta-3, sequence (P05106 27-788 limits assumed): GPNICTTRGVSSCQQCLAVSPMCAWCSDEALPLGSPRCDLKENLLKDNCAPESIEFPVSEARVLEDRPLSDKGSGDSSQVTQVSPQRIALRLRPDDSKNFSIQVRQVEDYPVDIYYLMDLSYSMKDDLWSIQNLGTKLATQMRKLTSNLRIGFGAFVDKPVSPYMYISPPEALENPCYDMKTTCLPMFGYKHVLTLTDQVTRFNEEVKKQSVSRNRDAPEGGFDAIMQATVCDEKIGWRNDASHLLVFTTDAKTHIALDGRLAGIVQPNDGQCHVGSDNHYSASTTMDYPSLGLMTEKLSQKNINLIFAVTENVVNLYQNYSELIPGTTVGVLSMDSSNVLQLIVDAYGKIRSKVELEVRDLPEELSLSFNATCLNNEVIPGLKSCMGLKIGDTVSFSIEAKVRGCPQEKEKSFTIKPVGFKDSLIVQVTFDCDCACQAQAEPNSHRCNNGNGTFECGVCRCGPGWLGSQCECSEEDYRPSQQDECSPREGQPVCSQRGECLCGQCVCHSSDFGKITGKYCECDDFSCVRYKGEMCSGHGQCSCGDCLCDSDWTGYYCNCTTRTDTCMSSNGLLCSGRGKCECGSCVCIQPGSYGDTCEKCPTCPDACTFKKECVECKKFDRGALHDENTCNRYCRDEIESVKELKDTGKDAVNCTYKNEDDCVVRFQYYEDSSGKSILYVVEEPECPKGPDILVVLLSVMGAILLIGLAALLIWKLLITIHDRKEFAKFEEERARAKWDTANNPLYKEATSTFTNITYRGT
Integrin alpha-V/beta-3, sequence (P06756 31-889 limits assumed): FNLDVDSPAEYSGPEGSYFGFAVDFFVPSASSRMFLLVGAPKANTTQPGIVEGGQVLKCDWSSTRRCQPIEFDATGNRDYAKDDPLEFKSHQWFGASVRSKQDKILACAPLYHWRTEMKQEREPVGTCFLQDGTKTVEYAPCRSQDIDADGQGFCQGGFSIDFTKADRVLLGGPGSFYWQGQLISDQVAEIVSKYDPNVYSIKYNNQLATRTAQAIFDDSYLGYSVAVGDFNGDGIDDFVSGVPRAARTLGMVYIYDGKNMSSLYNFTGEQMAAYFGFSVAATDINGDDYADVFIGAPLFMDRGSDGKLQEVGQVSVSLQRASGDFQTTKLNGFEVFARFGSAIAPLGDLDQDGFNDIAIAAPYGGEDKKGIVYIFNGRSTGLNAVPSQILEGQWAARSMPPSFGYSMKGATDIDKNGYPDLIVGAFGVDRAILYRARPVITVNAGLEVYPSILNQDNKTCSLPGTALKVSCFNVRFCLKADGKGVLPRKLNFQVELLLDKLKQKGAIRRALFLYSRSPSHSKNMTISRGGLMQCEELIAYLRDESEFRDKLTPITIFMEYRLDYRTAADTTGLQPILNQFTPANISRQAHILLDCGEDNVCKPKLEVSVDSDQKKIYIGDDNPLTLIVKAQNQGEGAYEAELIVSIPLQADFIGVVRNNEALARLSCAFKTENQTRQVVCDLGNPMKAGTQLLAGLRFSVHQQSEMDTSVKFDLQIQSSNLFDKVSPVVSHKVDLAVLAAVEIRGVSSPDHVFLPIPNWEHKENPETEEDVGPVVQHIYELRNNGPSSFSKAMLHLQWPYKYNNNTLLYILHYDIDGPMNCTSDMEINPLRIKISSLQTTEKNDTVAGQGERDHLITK
Integrin alpha-V/beta-3, sequence (P06756 891-1048 limits assumed): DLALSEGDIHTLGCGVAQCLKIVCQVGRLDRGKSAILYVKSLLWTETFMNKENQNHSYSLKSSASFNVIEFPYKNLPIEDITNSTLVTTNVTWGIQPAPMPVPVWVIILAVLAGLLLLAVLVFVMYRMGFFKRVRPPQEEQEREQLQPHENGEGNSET
Aurora kinase B (Homo sapiens), sequence (Q96GD4 whole entry): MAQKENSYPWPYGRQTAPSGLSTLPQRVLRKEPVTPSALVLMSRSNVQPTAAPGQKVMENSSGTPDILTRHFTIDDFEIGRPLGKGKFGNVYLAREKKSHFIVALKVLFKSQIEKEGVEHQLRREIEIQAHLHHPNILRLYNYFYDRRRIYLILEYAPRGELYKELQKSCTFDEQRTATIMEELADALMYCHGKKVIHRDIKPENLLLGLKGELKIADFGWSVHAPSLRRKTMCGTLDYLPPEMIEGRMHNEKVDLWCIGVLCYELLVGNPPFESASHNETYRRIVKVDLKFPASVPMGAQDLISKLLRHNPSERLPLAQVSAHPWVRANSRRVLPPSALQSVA
Mitogen-activated protein kinase kinase kinase 11 (Homo sapiens), sequence (Q16584 whole entry, looked up): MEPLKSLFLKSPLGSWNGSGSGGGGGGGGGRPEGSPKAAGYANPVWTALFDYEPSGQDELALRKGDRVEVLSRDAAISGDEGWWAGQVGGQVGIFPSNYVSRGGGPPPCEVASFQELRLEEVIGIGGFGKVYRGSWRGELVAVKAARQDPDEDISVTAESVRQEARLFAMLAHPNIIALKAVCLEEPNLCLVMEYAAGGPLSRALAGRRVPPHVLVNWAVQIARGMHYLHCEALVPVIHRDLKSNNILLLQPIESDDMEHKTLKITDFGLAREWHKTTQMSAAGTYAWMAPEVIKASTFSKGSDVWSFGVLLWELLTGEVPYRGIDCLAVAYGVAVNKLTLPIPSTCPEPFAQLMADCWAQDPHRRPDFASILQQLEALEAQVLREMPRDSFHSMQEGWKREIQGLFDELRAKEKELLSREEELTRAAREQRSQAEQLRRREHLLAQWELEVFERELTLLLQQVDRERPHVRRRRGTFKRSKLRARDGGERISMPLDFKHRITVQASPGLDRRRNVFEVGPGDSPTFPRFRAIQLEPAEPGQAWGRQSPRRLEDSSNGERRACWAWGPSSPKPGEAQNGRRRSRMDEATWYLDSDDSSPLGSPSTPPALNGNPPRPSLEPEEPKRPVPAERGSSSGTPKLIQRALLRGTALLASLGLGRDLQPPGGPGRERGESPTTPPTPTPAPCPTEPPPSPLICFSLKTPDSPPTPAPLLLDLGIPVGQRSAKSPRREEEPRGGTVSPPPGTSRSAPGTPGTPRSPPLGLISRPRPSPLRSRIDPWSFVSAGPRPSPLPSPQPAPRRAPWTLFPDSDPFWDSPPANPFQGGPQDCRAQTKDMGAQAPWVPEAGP
MAP/microtubule affinity-regulating kinase 3 (Homo sapiens), sequence (P27448 whole entry, looked up): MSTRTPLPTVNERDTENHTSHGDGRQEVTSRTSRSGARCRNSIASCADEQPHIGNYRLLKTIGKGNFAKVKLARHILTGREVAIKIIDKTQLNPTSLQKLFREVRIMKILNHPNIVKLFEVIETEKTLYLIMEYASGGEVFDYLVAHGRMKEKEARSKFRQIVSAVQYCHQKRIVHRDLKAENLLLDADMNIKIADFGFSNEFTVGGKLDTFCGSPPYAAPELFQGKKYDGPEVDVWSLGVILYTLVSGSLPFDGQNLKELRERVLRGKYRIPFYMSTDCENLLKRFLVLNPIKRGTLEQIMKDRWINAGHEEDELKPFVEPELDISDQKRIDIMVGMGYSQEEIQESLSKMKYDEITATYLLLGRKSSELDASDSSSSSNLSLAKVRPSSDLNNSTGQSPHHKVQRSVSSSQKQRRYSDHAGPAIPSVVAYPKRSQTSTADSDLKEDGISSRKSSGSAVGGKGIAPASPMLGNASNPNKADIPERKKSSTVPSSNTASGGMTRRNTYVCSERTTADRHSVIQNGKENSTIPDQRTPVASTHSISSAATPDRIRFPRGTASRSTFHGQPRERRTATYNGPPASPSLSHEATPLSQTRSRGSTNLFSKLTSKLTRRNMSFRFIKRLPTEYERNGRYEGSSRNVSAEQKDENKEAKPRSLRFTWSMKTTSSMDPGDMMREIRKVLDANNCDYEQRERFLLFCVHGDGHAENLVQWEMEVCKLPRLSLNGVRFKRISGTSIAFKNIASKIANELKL
Serine/threonine-protein kinase PLK1 (Homo sapiens), sequence (P53350 whole entry): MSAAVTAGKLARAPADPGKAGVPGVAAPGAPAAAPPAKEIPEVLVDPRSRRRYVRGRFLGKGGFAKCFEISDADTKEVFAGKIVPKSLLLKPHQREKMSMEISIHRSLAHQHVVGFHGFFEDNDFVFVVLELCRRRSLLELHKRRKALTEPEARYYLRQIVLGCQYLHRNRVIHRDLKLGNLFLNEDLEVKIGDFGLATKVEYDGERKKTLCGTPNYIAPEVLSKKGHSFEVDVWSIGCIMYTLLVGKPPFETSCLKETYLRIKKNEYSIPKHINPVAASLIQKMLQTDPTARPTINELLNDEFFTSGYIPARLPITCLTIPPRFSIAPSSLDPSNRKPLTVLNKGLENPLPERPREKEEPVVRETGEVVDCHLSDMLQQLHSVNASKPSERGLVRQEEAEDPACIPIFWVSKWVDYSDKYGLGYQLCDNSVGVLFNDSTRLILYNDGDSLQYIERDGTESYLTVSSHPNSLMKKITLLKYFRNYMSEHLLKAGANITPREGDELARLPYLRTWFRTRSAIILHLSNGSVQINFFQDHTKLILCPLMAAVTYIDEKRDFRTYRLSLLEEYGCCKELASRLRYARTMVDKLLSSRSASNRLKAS

With `Nc1ncc2c(n1)CNC(=O)c1[nH]c(Br)c(Br)c1-2` as the compound, how does the EC50 [1] read?
Its EC50 is 9 µg/mL (≈ 24.1 µM).

Which IC50 [2] does the source give for `NC1=NC(=O)/C(=C2\CCNC(=O)c3[nH]c4ccc(F)cc4c32)N1` here?
The IC50 was 0.55 µM.

What about the IC50 [3] of the same compound?
Its IC50 is 0.177 µM.

Which IC50 [3] does the source give for `O=C1NCC/C(=N\Nc2cccnc2Cl)c2c1[nH]c1ccc(F)cc21` here?
The IC50 was 0.012 µM.

Which IC50 [2] does the source give for `O=C1Cc2c([nH]c3ccncc23)-c2ccccc2N1` here?
The IC50 was 2.1 µM.

What about the IC50 [4] of the same compound?
Its IC50 is over 10 µM.

With `O=C1NC(=O)/C(=C2\CCNC(=O)c3[nH]c(Br)cc32)N1` [SPONGIACIDIN D] as the compound, how does the IC50 [2] read?
The IC50 was 4 µM.

And the IC50 [5]?
The IC50 was 9 µM.

And the IC50 [4]?
Its IC50 is 4.5 µM.

What about the IC50 [3] of the same compound?
Its IC50 is 7 µM.

Which IC50 [3] does the source give for `O=C1NCC/C(=N\Nc2cccnc2)c2c1[nH]c1ccc(F)cc21` here?
Its IC50 is 0.012 µM.

With `NC1=NC(=O)/C(=C2\CCNC(=O)c3[nH]c4ccc(Br)cc4c32)N1` as the compound, how does the IC50 [2] read?
The IC50 was 1 µM.

And the IC50 [3]?
Its IC50 is 0.213 µM.

For `Nc1ncc(/C=C/CNC(=O)c2cc(Br)c(Br)[nH]2)[nH]1` [OROIDIN], which inhibition at 50 µM [6] is on record?
Its inhibition at 50 µM is 50%.

What does the source list for `O=C1Cc2c([nH]c3cc[n+]([O-])cc23)-c2ccccc2N1`?
IC50 [2]: > 10 µM; IC50 [7]: > 10 µM; IC50 [4]: > 10 µM; IC50 [3]: > 10 µM; IC50 [8]: 7.4 µM; IC50 [9]: > 10 µM

Which IC50 [10] does the source give for `O=C1Nc2ccccc2/C1=C1/Nc2ccccc2/C1=N\O` here?
The IC50 was 0.022 µM.

Which Ratio IC50 [11] does the source give for `COc1ccc(-c2cc3c([nH]2)C(=O)NCC/C3=C2/NC(N)=NC2=O)cc1OC` here?
Its Ratio IC50 is 111.

With `O=C1NCC/C(=N\Nc2ccc(Cl)cn2)c2c1[nH]c1ccc(F)cc21` as the compound, how does the IC50 [3] read?
The IC50 was 0.075 µM.

Which results are given for `CCOC(=O)C[C@H]1C=C(c2ccc(Cl)cc2)c2ccccc2-n2c(C)nnc21`?
IC50 [12]: 0.12 µM; IC50 [13]: 0.08 µM

Which IC50 [14] does the source give for `O=C(O)CC1CCC(=O)N(CC(=O)NCc2ccc(Nc3nc4ccccc4[nH]3)cc2)c2ccccc21` (centres undefined) here?
The IC50 was 0.0005 µM.

For `Cc1nnc(C[C@H]2C=C(c3ccc(Cl)cc3)c3ccccc3-n3c(C)nnc32)o1`, which IC50 [12] is on record?
Its IC50 is 0.12 µM.

What about the IC50 [13] of the same compound?
Its IC50 is 0.04 µM.

For `O=C1N=C(NCc2ccccc2)N/C1=C1/CCNC(=O)c2[nH]c(-c3ccccc3)cc21`, which Ratio IC50 [11] is on record?
Its Ratio IC50 is 32.

With `O=C1Cc2c(-c3ccccc3)cc(-c3ccc(Cl)cc3)nc2-c2ccccc2N1` as the compound, how does the GI50 [15] read?
The GI50 was 1.7 µM.

Which inhibition [16] does the source give for `CCOC(=O)c1cc2c([nH]1)-c1[nH]c3ccccc3c1C(=O)NC2` here?
The inhibition was 50%.

And the inhibition [17]?
The inhibition was 50%.

What about the inhibition [18] of the same compound?
Its inhibition is 50%.

And the inhibition [19]?
Its inhibition is 50%.

And the inhibition [20]?
The inhibition was 50%.

What about the inhibition [21] of the same compound?
Its inhibition is 50%.

For `O=C1Cc2c(-c3ccccc3)cc(-c3ccco3)nc2-c2ccccc2N1`, which GI50 [15] is on record?
The GI50 was 6.6 µM.

With `O=C1Cc2c([nH]c3ccc(Br)cc23)-c2ccccc2N1` [KENPAULLONE] as the compound, how does the IC50 [22] read?
Its IC50 is over 100 µM.

And the IC50 [23]?
The IC50 was over 100 µM.

And the IC50 [24]?
Its IC50 is 38 µM.

What about the IC50 [25] of the same compound?
Its IC50 is over 1000 µM.

What about the IC50 [26] of the same compound?
The IC50 was over 1000 µM.

Which IC50 [14] does the source give for `COc1ccc2c(c1)C(CC(=O)O)CCC(=O)N2CC(=O)NC[C@H]1CC[C@H](Nc2nc3ccccc3[nH]2)CC1` (some centres undefined) here?
Its IC50 is 0.00026 µM.

Which IC50 [2] does the source give for `CCNC1=NC(=O)/C(=C2\CCNC(=O)c3[nH]c(Br)c(Br)c32)N1` here?
Its IC50 is over 10 µM.

And the IC50 [3]?
Its IC50 is 9.12 µM.

With `Nc1ncc(C2=CCNC(=O)c3[nH]c(Br)c(Br)c32)[nH]1` [STEVENSINE] as the compound, how does the EC50 [1] read?
Its EC50 is 3.5 µg/mL (≈ 9.04 µM).

With `NC1=NC(=O)/C(=C2\CCNC(=O)c3[nH]c(-c4ccccc4)cc32)N1` as the compound, how does the Ratio IC50 [11] read?
Its Ratio IC50 is 66.

With `CC(=O)NC1=NC(=O)/C(=C2\CCNC(=O)c3[nH]c(Br)c(Br)c32)N1` as the compound, how does the IC50 [2] read?
Its IC50 is 1.5 µM.

What about the IC50 [3] of the same compound?
Its IC50 is 0.533 µM.
